Data published in ChEMBL document CHEMBL1201861, “Genomics of Drug Sensitity in Cancer screening data, Wellcome Trust Sanger Institute”.

Legend:
Assay in all cases: cells
Assay type in all cases: functional, cell-based, Homo sapiens
[1] = system: COR-L88; conditions: Homo sapiens, COR-L88;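 note: growth inhibition of COR-L88 cells, read out with a cell viability assay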
Description: SANGER: Inhibition of human COR-L88 cell growth in a cell viability assay.

[2] = system: CP66-MEL; conditions: Homo sapiens, CP66-MEL;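 note: growth inhibition of CP66-MEL cells determined in a cell viability assay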
Description: SANGER: Inhibition of human CP66-MEL cell growth in a cell viability assay.

[3] = system: CTV-1; conditions: Homo sapiens, CTV-1;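 note: growth inhibition of the cell line, read out with a cell viability assay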
Description: SANGER: Inhibition of human CTV-1 cell growth in a cell viability assay.

[4] = system: D-247MG; conditions: Homo sapiens, D-247MG
Description: SANGER: Inhibition of human D-247MG cell growth in a cell viability assay.

[5] = system: DMS-79; conditions: Homo sapiens, DMS-79;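 note: growth inhibition measured with a cell viability assay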
Description: SANGER: Inhibition of human DMS-79 cell growth in a cell viability assay.

[6] = system: DOHH-2; conditions: Homo sapiens, DOHH-2;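 note: growth inhibition of human DOHH-2 cells, read out with a cell viability assay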
Description: SANGER: Inhibition of human DOHH-2 cell growth in a cell viability assay.

[7] = system: EKVX; conditions: Homo sapiens, EKVX;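 note: growth inhibition of human EKVX cells, read out with a cell viability assay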
Description: SANGER: Inhibition of human EKVX cell growth in a cell viability assay.

[8] = system: ES1; conditions: Homo sapiens, ES1;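 note: growth inhibition of ES1 cells, read out with a cell viability assay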
Description: SANGER: Inhibition of human ES1 cell growth in a cell viability assay.

[9] = system: EW-24; conditions: Homo sapiens, EW-24;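 note: human EW-24 cancer cell line, growth inhibition read out via a cell viability assay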
Description: SANGER: Inhibition of human EW-24 cell growth in a cell viability assay.

[10] = system: GB-1; conditions: Homo sapiens, GB-1;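 note: growth of GB-1 cells judged by a viability assay, IC50 marks the concentration inhibiting growth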
Description: SANGER: Inhibition of human GB-1 cell growth in a cell viability assay.

[11] = system: HCC1187; conditions: Homo sapiens, HCC1187;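 note: growth inhibition of HCC1187 cells, read out with a cell viability assay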
Description: SANGER: Inhibition of human HCC1187 cell growth in a cell viability assay.

[12] = system: HD-MY-Z; conditions: Homo sapiens, HD-MY-Z;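 note: growth inhibition of HD-MY-Z cells, read out with a cell viability assay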
Description: SANGER: Inhibition of human HD-MY-Z cell growth in a cell viability assay.

[13] = system: HEL; conditions: Homo sapiens, HEL;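 note: growth inhibition of HEL cells, read out with a cell viability assay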
Description: SANGER: Inhibition of human HEL cell growth in a cell viability assay.

[14] = system: HOP-62; conditions: Homo sapiens, HOP-62;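 note: cell growth inhibition determined with a viability assay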
Description: SANGER: Inhibition of human HOP-62 cell growth in a cell viability assay.

[15] = system: HT-144; conditions: Homo sapiens, HT-144
Description: SANGER: Inhibition of human HT-144 cell growth in a cell viability assay.

[16] = system: IA-LM; conditions: Homo sapiens, IA-LM;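 note: cell viability assay measuring growth inhibition of human IA-LM cells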
Description: SANGER: Inhibition of human IA-LM cell growth in a cell viability assay.

[17] = system: IST-MEL1; conditions: Homo sapiens, IST-MEL1;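 note: growth inhibition of the cell line, read out with a cell viability assay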
Description: SANGER: Inhibition of human IST-MEL1 cell growth in a cell viability assay.

[18] = system: KNS-81-FD; conditions: Homo sapiens, KNS-81-FD;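 note: growth inhibition of KNS-81-FD cells, read out with a cell viability assay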
Description: SANGER: Inhibition of human KNS-81-FD cell growth in a cell viability assay.

[19] = system: L-363; conditions: Homo sapiens, L-363
Description: SANGER: Inhibition of human L-363 cell growth in a cell viability assay.

[20] = system: LU-139; conditions: Homo sapiens, LU-139
Description: SANGER: Inhibition of human LU-139 cell growth in a cell viability assay.

[21] = system: MS-1; conditions: Homo sapiens, MS-1;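 note: growth inhibition of MS-1 cells, read out by cell viability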
Description: SANGER: Inhibition of human MS-1 cell growth in a cell viability assay.

[22] = system: MSTO-211H; conditions: Homo sapiens, MSTO-211H
Description: SANGER: Inhibition of human MSTO-211H cell growth in a cell viability assay.

[23] = system: NB12; conditions: Homo sapiens, NB12;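 note: growth inhibition of human NB12 cells, read out by a cell viability assay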
Description: SANGER: Inhibition of human NB12 cell growth in a cell viability assay.

[24] = system: NB5; conditions: Homo sapiens, NB5;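 note: growth inhibition of NB5 cells, read out as cell viability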
Description: SANGER: Inhibition of human NB5 cell growth in a cell viability assay.

[25] = system: NB6; conditions: Homo sapiens, NB6;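 note: growth inhibition of NB6 cells, read out by a cell viability assay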
Description: SANGER: Inhibition of human NB6 cell growth in a cell viability assay.

[26] = system: NB69; conditions: Homo sapiens, NB69;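 note: growth inhibition of NB69 cells, determined by a cell viability assay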
Description: SANGER: Inhibition of human NB69 cell growth in a cell viability assay.

[27] = system: NCI-H1092; conditions: Homo sapiens, NCI-H1092;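 note: cell growth inhibition measured with a cell viability assay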
Description: SANGER: Inhibition of human NCI-H1092 cell growth in a cell viability assay.

[28] = system: NCI-H1304; conditions: Homo sapiens, NCI-H1304;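 note: growth inhibition of the cancer cell line, measured in a cell viability assay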
Description: SANGER: Inhibition of human NCI-H1304 cell growth in a cell viability assay.

[29] = system: NCI-H209; conditions: Homo sapiens, NCI-H209;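 note: growth inhibition of human NCI-H209 cells, measured by a cell viability assay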
Description: SANGER: Inhibition of human NCI-H209 cell growth in a cell viability assay.

[30] = system: NCI-H526; conditions: Homo sapiens, NCI-H526;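 note: growth inhibition of the human NCI-H526 cell line, measured by a cell viability assay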
Description: SANGER: Inhibition of human NCI-H526 cell growth in a cell viability assay.

[31] = system: NCI-H69; conditions: Homo sapiens, NCI-H69;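 note: growth inhibition of the cell line, read out with a cell viability assay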
Description: SANGER: Inhibition of human NCI-H69 cell growth in a cell viability assay.

[32] = system: NCI-H747; conditions: Homo sapiens, NCI-H747;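 note: growth inhibition of human NCI-H747 cells, read out by a cell viability assay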
Description: SANGER: Inhibition of human NCI-H747 cell growth in a cell viability assay.

[33] = system: SNU-5; conditions: Homo sapiens, SNU-5;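 note: cell viability readout used to measure growth inhibition in human NCI-SNU-5 cells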
Description: SANGER: Inhibition of human NCI-SNU-5 cell growth in a cell viability assay.

[34] = system: NTERA-2-cl-D1; conditions: Homo sapiens, NTERA-2-cl-D1;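 note: inhibition of cell growth, measured with a cell viability assay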
Description: SANGER: Inhibition of human NTERA-S-cl-D1 cell growth in a cell viability assay.

[35] = system: OCUB-M; conditions: Homo sapiens, OCUB-M;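 note: growth inhibition of the cancer cell line, read out through a cell viability assay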
Description: SANGER: Inhibition of human OCUB-M cell growth in a cell viability assay.

[36] = system: SCC-15; conditions: Homo sapiens, SCC-15;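 note: growth inhibition of SCC-15 cells, read out with a cell viability assay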
Description: SANGER: Inhibition of human SCC-15 cell growth in a cell viability assay.

[37] = system: SK-N-DZ; conditions: Homo sapiens, SK-N-DZ;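 note: growth inhibition of the cancer cell line, read out through a viability assay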
Description: SANGER: Inhibition of human SK-N-DZ cell growth in a cell viability assay.

[38] = system: SK-N-FI; conditions: Homo sapiens, SK-N-FI;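 note: cell viability assay measuring growth inhibition of human SK-N-FI cells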
Description: SANGER: Inhibition of human SK-N-FI cell growth in a cell viability assay.

[39] = system: SK-UT-1; conditions: Homo sapiens, SK-UT-1;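 note: growth inhibition of SK-UT-1 cells, measured by a cell viability assay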
Description: SANGER: Inhibition of human SK-UT-1 cell growth in a cell viability assay.

[40] = system: SW 962; conditions: Homo sapiens, SW 962;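 note: growth inhibition of human SW962 cells, read out by a cell viability assay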
Description: SANGER: Inhibition of human SW962 cell growth in a cell viability assay.

[41] = system: A3-KAW; conditions: Homo sapiens, A3-KAW;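 note: growth inhibition of human A3-KAW cells, read out with a cell viability assay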
Description: SANGER: Inhibition of human A3-KAW cell growth in a cell viability assay.

[42] = system: AM-38; conditions: Homo sapiens, AM-38;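 note: growth inhibition of AM-38 cells of human origin, read out by a cell viability assay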
Description: SANGER: Inhibition of human AM-38 cell growth in a cell viability assay.

[43] = system: ATN-1; conditions: Homo sapiens, ATN-1;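 note: growth inhibition of human ATN-1 cells, read out with a cell viability assay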
Description: SANGER: Inhibition of human ATN-1 cell growth in a cell viability assay.

[44] = system: C8166; conditions: Homo sapiens, C8166;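 note: growth inhibition of human C8166 cells measured by a cell viability assay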
Description: SANGER: Inhibition of human C8166 cell growth in a cell viability assay.

[45] = system: TGBC1TKB; conditions: Homo sapiens, TGBC1TKB;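 note: growth inhibition of TGBC1TKB cells, read out by a cell viability assay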
Description: SANGER: Inhibition of human TGBC1TKB cell growth in a cell viability assay.

[46] = system: UACC-257; conditions: Homo sapiens, UACC-257
Description: SANGER: Inhibition of human UACC-257 cell growth in a cell viability assay.

[47] = system: VA-ES-BJ; conditions: Homo sapiens, VA-ES-BJ;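 note: growth inhibition of the VA-ES-BJ cell line, read out by a cell viability assay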
Description: SANGER: Inhibition of human VA-ES-BJ cell growth in a cell viability assay.

For `Nc1cccc2c1CN(C1CCC(=O)NC1=O)C2=O` (centres undefined) [LENALIDOMIDE], the IC50 [1] was over 5 µM, the IC50 [2] was over 5 µM and the IC50 [3] was over 5 µM. It also gave an IC50 [4] of over 5 µM, an IC50 [5] of over 5 µM and an IC50 [6] of over 5 µM. For the same molecule, the IC50 [7] was over 5 µM, the IC50 [8] was over 5 µM and the IC50 [9] was over 5 µM. The IC50 [10] was over 5 µM, the IC50 [11] was over 5 µM and the IC50 [12] was over 5 µM. It also gave an IC50 [13] of over 5 µM, an IC50 [14] of over 5 µM and an IC50 [15] of over 5 µM. The IC50 [16] was over 5 µM, the IC50 [17] was over 5 µM and the IC50 [18] was over 5 µM. It also gave an IC50 [19] of 2.92 µM, an IC50 [20] of over 5 µM and an IC50 [21] of over 5 µM. The IC50 [22] was over 5 µM, the IC50 [23] was over 5 µM and the IC50 [24] was over 5 µM. The IC50 [25] was over 5 µM, the IC50 [26] was over 5 µM and the IC50 [27] was over 5 µM. It also gave an IC50 [28] of over 5 µM, an IC50 [29] of over 5 µM and an IC50 [30] of over 5 µM. The IC50 [31] was over 5 µM, the IC50 [32] was over 5 µM and the IC50 [33] was over 5 µM. It also gave an IC50 [34] of over 5 µM, an IC50 [35] of over 5 µM and an IC50 [36] of over 5 µM. The IC50 [37] was over 5 µM, the IC50 [38] was over 5 µM and the IC50 [39] was over 5 µM. For the same molecule, the IC50 [40] was over 5 µM, the IC50 [41] was over 5 µM and the IC50 [42] was over 5 µM. For the same molecule, the IC50 [43] was over 5 µM, the IC50 [44] was over 5 µM and the IC50 [45] was over 5 µM. It also gave an IC50 [46] of over 5 µM and an IC50 [47] of over 5 µM.

Work on `Cc1cn(-c2cc(NC(=O)c3ccc(C)c(Nc4nccc(-c5cccnc5)n4)c3)cc(C(F)(F)F)c2)cn1` [NILOTINIB] yielded an IC50 [1] of over 2 µM, an IC50 [2] of over 2 µM and an IC50 [3] of over 2 µM. The IC50 [4] was over 2 µM, the IC50 [5] was over 2 µM and the IC50 [6] was over 2 µM. It also gave an IC50 [7] of over 2 µM, an IC50 [8] of over 2 µM and an IC50 [9] of over 2 µM. It also gave an IC50 [10] of over 2 µM, an IC50 [11] of over 2 µM and an IC50 [12] of over 2 µM. For the same molecule, the IC50 [13] was over 2 µM, the IC50 [14] was 1.82 µM and the IC50 [15] was over 2 µM. The IC50 [16] was over 2 µM, the IC50 [17] was over 2 µM and the IC50 [18] was over 2 µM. The IC50 [19] was over 2 µM, the IC50 [20] was over 2 µM and the IC50 [21] was over 2 µM. It also gave an IC50 [22] of over 2 µM, an IC50 [23] of over 2 µM and an IC50 [24] of over 2 µM. The IC50 [25] was over 2 µM, the IC50 [26] was over 2 µM and the IC50 [27] was over 2 µM. The IC50 [28] was over 2 µM, the IC50 [29] was over 2 µM and the IC50 [30] was over 2 µM. For the same molecule, the IC50 [31] was over 2 µM, the IC50 [32] was over 2 µM and the IC50 [33] was over 2 µM. For the same molecule, the IC50 [34] was over 2 µM, the IC50 [35] was over 2 µM and the IC50 [36] was over 2 µM. The IC50 [37] was over 2 µM, the IC50 [38] was over 2 µM and the IC50 [39] was over 2 µM. For the same molecule, the IC50 [40] was over 2 µM, the IC50 [41] was over 2 µM and the IC50 [42] was over 2 µM. The IC50 [43] was over 2 µM, the IC50 [44] was over 2 µM and the IC50 [45] was over 2 µM. The IC50 [46] was over 2 µM and the IC50 [47] was over 2 µM.
